These are literature values, as cited in US20240208997A1, “CYCLIC BENZIMIDAZOLE DERIVATIVES AS CGAS INHIBITORS” (Boehringer Ingelheim International GmbH, priority 2022, published 2024).

Where only a bound is given, the exact number is not on record here.

cGAS, sequence (Q8N884 whole entry): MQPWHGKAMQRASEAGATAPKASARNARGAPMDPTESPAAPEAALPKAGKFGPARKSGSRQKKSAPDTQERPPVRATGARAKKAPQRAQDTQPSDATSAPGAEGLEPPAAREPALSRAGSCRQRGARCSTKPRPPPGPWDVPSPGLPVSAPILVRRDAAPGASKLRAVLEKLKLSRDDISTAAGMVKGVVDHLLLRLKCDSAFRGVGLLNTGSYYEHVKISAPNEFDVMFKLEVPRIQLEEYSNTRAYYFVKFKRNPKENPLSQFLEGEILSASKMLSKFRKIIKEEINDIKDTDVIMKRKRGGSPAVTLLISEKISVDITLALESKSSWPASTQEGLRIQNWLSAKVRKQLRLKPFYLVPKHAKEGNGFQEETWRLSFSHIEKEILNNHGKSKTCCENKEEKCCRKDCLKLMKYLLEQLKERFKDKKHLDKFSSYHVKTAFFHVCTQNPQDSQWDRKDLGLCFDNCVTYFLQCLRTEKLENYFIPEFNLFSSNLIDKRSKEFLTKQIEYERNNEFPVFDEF

The first data set concerns the target cGAS (Homo sapiens, UniProt Q8N884). The arrangement: HumancGAS (amino acid 1-522) with an N-terminal 6×-His-tag and SUMO-tag; 6xHis (N); SUMO (N); made in house; host or cells: E. coli BL21(DE3) pLysS. Particulars: Table 4; compounds of PCT/EP2022/062480 and PCT/EP2022/062496 and their methyl ester prodrugs; read-out: hcGAS IC50; cited from earlier work.
`COC(=O)[C@@H]1C[C@H](Oc2ncc(Cl)cc2[C@@]2(F)CCS(=O)(=O)C[C@@H]2C)CN1c1nc(C(F)F)nc2c1oc1ccccc12` [P02 of PCT/ EP2022/062496]: the half-inhibitory concentration (IC50) was above 9950 nM.

The test system of the next data set is IFN induction in dsDNA-stimulated human whole blood. Conditions: Table 4; compounds of PCT/EP2022/062480 and PCT/EP2022/062496 and their methyl ester prodrugs; read-out: hWB IC50; cited from earlier work.
In the case of `C[C@@H]1N(c2cccnc2O[C@H]2C[C@@H](C(=O)O)N(c3nc(C(F)F)nc4c3oc3ccccc34)C2)CCOC12COC2` [Ex. 4.04 of PCT/EP2022/062 480], the concentration for half-maximal inhibition (IC50) is 77 nM.

`C#Cc1cnc(O[C@H]2C[C@@H](C(=O)O)N(c3nc(C(F)(F)F)nc4c3oc3ccccc34)C2)c(N2CCOC3(COC3)[C@@H]2C)c1` [Ex. 1.12 of PCT/EP2022/062 480]: the IC50 was 15 nM.

Turning to `C#Cc1cnc(O[C@H]2C[C@@H](C(=O)OC)N(c3nc(C(F)(F)F)nc4c3oc3ccccc34)C2)c([C@@]2(F)CCS(=O)(=O)C[C@@H]2C)c1` [P01 of PCT/EP2022/062 496], the half-maximal inhibitory concentration (IC50) is 67 nM.

With `C#Cc1cnc(O[C@H]2C[C@@H](C(=O)OC)N(c3nc(C(F)(F)F)nc4c3oc3ccccc34)C2)c(N2CCOC3(COC3)[C@@H]2C)c1` [P03 of PCT/EP2022/062 480], the IC50 is 1090 nM.

For the compound `CO[C@]1(c2cc(Cl)cnc2O[C@H]2C[C@@H](C(=O)O)N(c3nc(C(F)F)nc4c3oc3ccccc34)C2)CC(C)(C)S(=O)(=O)C[C@@H]1C` [Ex. 1.05 of PCT/ EP2022/062496], the IC50 was 135 nM.

Take `C[C@H]1CS(=O)(=O)CC[C@]1(F)c1cc(Cl)cnc1O[C@H]1C[C@@H](C(=O)O)N(c2nc(C(F)F)nc3c2oc2ccccc23)C1` [Ex. 1.13 of PCT/ EP2022/062496]: the half-maximal inhibitory concentration (IC50) is 6 nM.

Regarding `C#Cc1cnc(O[C@H]2C[C@@H](C(=O)O)N(c3nc(C(F)(F)F)nc4c3oc3ccccc34)C2)c([C@@]2(F)CCS(=O)(=O)C[C@@H]2C)c1` [Ex. 2.12 of PCT/ EP2022/062496], the IC50 was 8 nM.

As for `COC(=O)[C@@H]1C[C@H](Oc2ncc(Cl)cc2[C@@]2(F)CCS(=O)(=O)C[C@@H]2C)CN1c1nc(C(F)F)nc2c1oc1ccccc12` [P02 of PCT/ EP2022/062496], the IC50 was 140 nM.

As for `COc1ncccc1-c1cnc(O[C@H]2C[C@@H](C(=O)O)N(c3nc(C(F)(F)F)nc4c3oc3ccccc34)C2)c(N2CCOC3(COC3)[C@@H]2C)c1` [Ex. 3.14 of PCT/EP2022/062 480], the IC50 was 26 nM.

Take `COC(=O)[C@@H]1C[C@H](Oc2ncc(Cl)cc2[C@@]2(OC)CC(C)(C)S(=O)(=O)C[C@@H]2C)CN1c1nc(C(F)F)nc2c1oc1ccccc12` [P03 of PCT/ EP2022/062496]: the IC50 was 1990 nM.

The next data set has as its system IFN induction in cGAMP-stimulated THP1 cells. Particulars: Table 4; compounds of PCT/EP2022/062480 and PCT/EP2022/062496 and their methyl ester prodrugs; cited from earlier work.
Take `C[C@@H]1N(c2cccnc2O[C@H]2C[C@@H](C(=O)O)N(c3nc(C(F)F)nc4c3oc3ccccc34)C2)CCOC12COC2` [Ex. 4.04 of PCT/EP2022/062 480]: the IC50 was above 16600 nM.

As for `C#Cc1cnc(O[C@H]2C[C@@H](C(=O)O)N(c3nc(C(F)(F)F)nc4c3oc3ccccc34)C2)c(N2CCOC3(COC3)[C@@H]2C)c1` [Ex. 1.12 of PCT/EP2022/062 480], the IC50 was 11900 nM.

As to `C#Cc1cnc(O[C@H]2C[C@@H](C(=O)OC)N(c3nc(C(F)(F)F)nc4c3oc3ccccc34)C2)c([C@@]2(F)CCS(=O)(=O)C[C@@H]2C)c1` [P01 of PCT/EP2022/062 496], the IC50 is above 16600 nM.

In the case of `C#Cc1cnc(O[C@H]2C[C@@H](C(=O)OC)N(c3nc(C(F)(F)F)nc4c3oc3ccccc34)C2)c(N2CCOC3(COC3)[C@@H]2C)c1` [P03 of PCT/EP2022/062 480], the IC50 was 22800 nM.

With `CO[C@]1(c2cc(Cl)cnc2O[C@H]2C[C@@H](C(=O)O)N(c3nc(C(F)F)nc4c3oc3ccccc34)C2)CC(C)(C)S(=O)(=O)C[C@@H]1C` [Ex. 1.05 of PCT/ EP2022/062496], the IC50 was 13200 nM.

Take `C[C@H]1CS(=O)(=O)CC[C@]1(F)c1cc(Cl)cnc1O[C@H]1C[C@@H](C(=O)O)N(c2nc(C(F)F)nc3c2oc2ccccc23)C1` [Ex. 1.13 of PCT/ EP2022/062496]: the IC50 was 22500 nM.

`C#Cc1cnc(O[C@H]2C[C@@H](C(=O)O)N(c3nc(C(F)(F)F)nc4c3oc3ccccc34)C2)c([C@@]2(F)CCS(=O)(=O)C[C@@H]2C)c1` [Ex. 2.12 of PCT/ EP2022/062496]: the IC50 was 21800 nM.

`COC(=O)[C@@H]1C[C@H](Oc2ncc(Cl)cc2[C@@]2(F)CCS(=O)(=O)C[C@@H]2C)CN1c1nc(C(F)F)nc2c1oc1ccccc12` [P02 of PCT/ EP2022/062496]: the 50% inhibitory concentration (IC50) was above 16600 nM.

Turning to `COc1ncccc1-c1cnc(O[C@H]2C[C@@H](C(=O)O)N(c3nc(C(F)(F)F)nc4c3oc3ccccc34)C2)c(N2CCOC3(COC3)[C@@H]2C)c1` [Ex. 3.14 of PCT/EP2022/062 480], the IC50 was 7830 nM.

As to `COC(=O)[C@@H]1C[C@H](Oc2ncc(Cl)cc2[C@@]2(OC)CC(C)(C)S(=O)(=O)C[C@@H]2C)CN1c1nc(C(F)F)nc2c1oc1ccccc12` [P03 of PCT/ EP2022/062496], the IC50 was 20600 nM.

The subject of a further data set is IFN induction in virus-stimulated THP1 cells. Particulars: Table 4; compounds of PCT/EP2022/062480 and PCT/EP2022/062496 and their methyl ester prodrugs; read-out: THP1(vir) IC50; cited from earlier work.
Consider `C[C@@H]1N(c2cccnc2O[C@H]2C[C@@H](C(=O)O)N(c3nc(C(F)F)nc4c3oc3ccccc34)C2)CCOC12COC2` [Ex. 4.04 of PCT/EP2022/062 480], for which the IC50 was 386 nM.

Turning to `C#Cc1cnc(O[C@H]2C[C@@H](C(=O)O)N(c3nc(C(F)(F)F)nc4c3oc3ccccc34)C2)c(N2CCOC3(COC3)[C@@H]2C)c1` [Ex. 1.12 of PCT/EP2022/062 480], the concentration for half-maximal inhibition (IC50) was 7 nM.

On to `C#Cc1cnc(O[C@H]2C[C@@H](C(=O)OC)N(c3nc(C(F)(F)F)nc4c3oc3ccccc34)C2)c([C@@]2(F)CCS(=O)(=O)C[C@@H]2C)c1` [P01 of PCT/EP2022/062 496], for which the concentration for half-maximal inhibition (IC50) is 11 nM.

For the compound `C#Cc1cnc(O[C@H]2C[C@@H](C(=O)OC)N(c3nc(C(F)(F)F)nc4c3oc3ccccc34)C2)c(N2CCOC3(COC3)[C@@H]2C)c1` [P03 of PCT/EP2022/062 480], the concentration for half-maximal inhibition (IC50) is 188 nM.

For the compound `CO[C@]1(c2cc(Cl)cnc2O[C@H]2C[C@@H](C(=O)O)N(c3nc(C(F)F)nc4c3oc3ccccc34)C2)CC(C)(C)S(=O)(=O)C[C@@H]1C` [Ex. 1.05 of PCT/ EP2022/062496], the IC50 is 44 nM.

Consider `COC(=O)[C@@H]1C[C@H](Oc2ncc(Cl)cc2[C@@]2(F)CCS(=O)(=O)C[C@@H]2C)CN1c1nc(C(F)F)nc2c1oc1ccccc12` [P02 of PCT/ EP2022/062496], for which the half-inhibitory concentration (IC50) is 29 nM.

As to `COc1ncccc1-c1cnc(O[C@H]2C[C@@H](C(=O)O)N(c3nc(C(F)(F)F)nc4c3oc3ccccc34)C2)c(N2CCOC3(COC3)[C@@H]2C)c1` [Ex. 3.14 of PCT/EP2022/062 480], the IC50 was 10 nM.

With `COC(=O)[C@@H]1C[C@H](Oc2ncc(Cl)cc2[C@@]2(OC)CC(C)(C)S(=O)(=O)C[C@@H]2C)CN1c1nc(C(F)F)nc2c1oc1ccccc12` [P03 of PCT/ EP2022/062496], the IC50 was 202 nM.
